Among the data in patent publication US20220235032A1 (GENFLEET THERAPEUTICS (SHANGHAI) INC., priority 2019, published 2022) are IC50 values, retold here.

The term pIC50 denotes the IC50 on a negative log10 scale, so that one unit is a factor of ten.

pIC50: −log10 of the molar value.

One assay has as its target T1, RIPK1 enzyme (Homo sapiens, UniProt Q13546).
T1 construct: purchased Eurofins 16-022
T1 sequence (Q13546 1-671): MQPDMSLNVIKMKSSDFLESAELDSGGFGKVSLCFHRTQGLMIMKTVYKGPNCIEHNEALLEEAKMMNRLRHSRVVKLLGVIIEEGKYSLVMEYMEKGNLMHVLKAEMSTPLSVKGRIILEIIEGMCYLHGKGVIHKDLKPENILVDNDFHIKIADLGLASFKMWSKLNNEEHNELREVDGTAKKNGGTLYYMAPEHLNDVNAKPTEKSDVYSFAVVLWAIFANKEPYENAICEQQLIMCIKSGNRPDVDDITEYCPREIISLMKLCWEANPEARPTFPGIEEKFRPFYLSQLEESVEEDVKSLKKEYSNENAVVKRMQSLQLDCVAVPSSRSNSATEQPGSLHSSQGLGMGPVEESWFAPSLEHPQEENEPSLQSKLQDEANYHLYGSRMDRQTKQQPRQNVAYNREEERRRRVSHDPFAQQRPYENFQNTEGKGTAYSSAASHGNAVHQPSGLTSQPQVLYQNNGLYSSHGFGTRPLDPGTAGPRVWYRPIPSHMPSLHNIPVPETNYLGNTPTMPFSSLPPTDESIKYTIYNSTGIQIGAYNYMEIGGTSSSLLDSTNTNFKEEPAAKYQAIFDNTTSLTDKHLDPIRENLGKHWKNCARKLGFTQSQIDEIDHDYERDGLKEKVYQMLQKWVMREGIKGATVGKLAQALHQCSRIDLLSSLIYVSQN
Description: Inhibitory activity of the compounds against RIPK1 enzyme (P33-ATP, MBP substrate). The class given is biochemical. The following applies: 36 nM RIPK1, substrate MBP, 10 mM magnesium ion, P33-labeled ATP, 2 h room temperature; read-out: RIPK1 enzyme inhibitory activety IC50. As to the method: The compound to be tested was dissolved in DMSO, and diluted in 3.16 folds with DMSO to a series of gradient concentrations. Then, the solution was diluted with MOPS buffer pH 7.0 to the final concentration. The resultant working solution was mixed with 36 nM RIPK1 (final concentration) and the substrate MBP homogeneously. Thereafter, 10 mM magnesium ion and P^33 isotopically labeled ATP were added for the reaction. After the reaction was carried out at room temperature for 2 h, phosphoric acid was added to terminate the reaction. The final reaction system was tested using a liquid scintillation counter after treatment. The […] for the tested result and a positive control group were converted to activity percentage. The activity percentage was plotted against the final concentration of respective compound using a 4-parameter fitting to obtain the inhibitory IC50 of the compound against RIPK1 enzyme.

A further assay deals with U937 cells. Description: Inhibitory activity against programmed necroptosis of U937 cells induced by TNF-α and Q-VD-Oph (CellTiter-Glo). The class given is cell-based. The following applies: Homo sapiens, U-937, 48 h, Celltiter-Glo survival rate. The protocol:
The U937 cell strain which was used in the following Testing Examples was derived from ATCC, No.: CRL-1593.2, batch No.: 63479999, culture medium: RPMI-1640+10% FBS.
The compound to be tested was dissolved in DMSO, and diluted with DMSO to a series of gradient concentrations. The U937 cells were inoculated in a 384-well plate at 5000/well. The compound at respective concentration was added to each of the wells, and was mixed with the cells homogeneously. Human TNF-α and Q-VD-Oph were added simultaneously to induce programmed necroptosis of the cells. The cells were placed in the incubator at 37° C. and 5% CO2 for further culture of 48 h. Celltiter-Glo reagent was used for detection. After adequate pyrolysis reaction, the chemiluminescence readout value was recorded by a microplate reader. The survival rate was calculated from the detection results using the equation as follows: SR (%)=(RLU compound−RLU blank)/(RLU high control−RLU blank)×100%. The survival rate was plotted against the final concentration of respective compound using a 4-parameter fitting to calculate the inhibitory C50 of the compound against programmed necroptosis of cells induced by TNF-α.
On the technique in general: Cellular ATP, detected with luciferase, serves as a proxy for viable cell number.

With `COc1nccc(N2CC3CC(C(=O)N4N=CCC4c4ccccc4)CC3C2)n1` (stereo not shown) [Compound Z-13, (2-(2-methoxypyrimidin-4-yl)octahydrocyclopenta[c]pyrrol-5-yl)(5-phenyl-4,5-dihydro-1H-pyrazol-1-yl) ketone], the pIC50 on RIPK1 enzyme was 7.20; with U937 cells, 6.84.

In the case of `N#Cc1cc(N2CC3CC(C(=O)N4N=CCC4c4ccccc4)CC3C2)ncn1` (stereo not shown) [Compound Z-72, 6-(5-(5-phenyl-4,5-dihydro-1H-pyrazole-1-carbonyl)hexahydrocyclopenta[C]pyrrol-2(1H)-yl)pyrimidine-4-carbonitrile], the figures for the pIC50 on RIPK1 enzyme and in the assay with U937 cells were 6.77 and 7.52, respectively.
